Test results as given in patent US20130224110A1, “USE OF ADENOSINE RECEPTOR SIGNALING TO MODULATE PERMEABILITY OF BLOOD-BRAIN BARRIER” (CORNELL UNIVERSITY, priority 2010, published 2013).

Experiments:
hCMEC/D3 cells = assay: Jurkat cell migration across hCMEC/D3 transwell in vitro BBB; assay type: cell-based, human; conditions: 24 hours
Method: hCMEC/D3 cells were seeded onto Transwell and allowed to grow to confluencey. 2×10^6 Jurkat cells were added to the upper chamber with or without NECA (general adenosine receptor [AR] agonist), CCPA (A1 AR agonist), CGS 21860 (A2A AR agonist), or DMSO vehicle. After 24 hours, migrated cells in the lower chamber were counted. Values are relative to the number of cells that migrate through non-[…]3 seeded transwells.

Z310 cells = assay: Jurkat cell migration across Z310 choroid plexus cell transwell; assay type: cell-based, murine; conditions: 24 hours, n=1
Method: To test the hypothesis, Transwell membranes were seeded with Z310 cells and allowed to grow to confluencey. 2×10^6 Jurkat cells were added to the upper chamber with or with out NECA (n=1, general AR agonist), CCPA (n=1, A1 AR agonist), CGS 21860 (n=1, A2A AR agonist), or DMSO vehicle(n=1). After 24 hours, migrated cells in the lower chamber were counted. Values are relative to the number of cells that migrate through non-Z310 seeded transwells and the results are shown in FIG. 12.

blood brain barrier = assay: Fluorescently labeled dextran extravasation into mouse brain (fluorimetry); assay type: in vivo, mice; conditions: wild type mice, 10,000 Da FITC-dextran, i.v., 3 h, vs vehicle
Method: The adenosine receptor agonists NECA, CCPA, CGS 21860, and SCH 58261 (Tocris, Ellisville, Mo.) were each dissolved in DMSO then diluted in PBS to the desired concentration; in most cases final DMSO concentrations were <0.5% (vol/vol). Lexiscan (Regadenoson; TRC, Inc., Toronto) was dissolved in PBS. For vehicle controls, DMSO was diluted in PBS to the same concentration. Dehydrated dextrans labeled with either FITC or Texas Red (Invitrogen, Carlsbad, Calif.) were re-suspended in PBS to 10 mg/ml. All experiments involving dextran injection used 1.0 mg dextran in PBS. In experiments where drug and dextran were injected concomitantly, 1.0 mg of dextran was mixed with the drug to the desired concentration in a final volume of 200 μl. In dose-response experiments, drugs and dextrans were injected concomitantly. All injections, except injections of SCH 58261, were retro-orbital i.v. with a 27-gauge needle. In the SCH 58261 experiment, SCH 58261 injections, 1 mg/kg, were intraperitoneal and mice were pre-dosed with this concentration daily for 4 days prior to the day of the experiment. An additional injection was administered at the time of the experiment. Vehicle/drug and dextrans were injected on day 5 and tissues were collected 3 h after vehicle/drug administration. In Lexiscan experiments, Lexiscan was administered i.v. with 3 injections, 5 min apart and tissues were collected at 15 min unless otherwise indicated.
In dose-response experiments and experiments with the A1 AR and A2A AR knock-out mice, drugs and dextrans were injected concomitantly. After 3 h, the mice were anesthetized with ketamine/xylazine and subjected to a nose cone containing isoflurane. They were perfused with 25-50 ml ice-cold PBS through the left ventricle of the heart then decapitated. Their brains were removed, weighed and frozen for later analysis.
Ice-cold 50 mMTris-Cl (pH 7.6) was added to frozen brains (100 μl per 100 mg brain) and were to thawed on ice. They were homogenized with a dounce homogenizer and centrifuged at […] in a microfuge for 30 min at room temperature (rt). The supernatants were transferred to new tubes and an equal volume absolute methanol was added. The samples were centrifuged again at […] for 30 min at rt. Supernatant (200 μl) was transferred to a Corning costar 96 well black polystyrene assay plate (clear bottom). Additionally, a series of standards containing 0.001-10 pg/ml dextran in 50% Tris-Cl/50% absolute methanol (vol/vol) was added to each plate. Absolute concentrations of dextrans were derived from these standard curves. Fluorimetric analysis was performed on a BioTek (Winooski, Vt.) Synergy 4. FITC-dextran was detected at 488/519 (excitation/emission) and Texas Red-dextran was detected at 592/618.

Bend.3 cells = assay: F-actin (phalloidin) staining of endothelial cells; assay type: cell-based, mouse; conditions: BECs, 1 μM, 3 or 30 min, vs vehicle
Method: Bend.3 cells were grown (as described above) on circular cover slips in 24-well plates. Cells were treated for 3 or 30 min with 1 μM CCPA, 1 μM […], DMSO or media alone. Cover slips were washed with PBS, fixed in 4% paraformaldahyde, washed again in PBS and then permeabilized with 0.5% TritonX-100 in PBS. After washing in PBS/1% BSA, cover slips were blocked with 1% BSA then stained with Phallodin-Alexa 568. Cover slips were washed and mounted on slides with ProlongGold containing DAPI (Invitrogen). Images were obtained on an Olympus BX51 fluorescent microscope.

HCMECD3 cells = assay: cAMP levels in human brain endothelial cells (cAMP Screen kit); assay type: cell-based; conditions: 15 minutes
Method: […]3 cells were grown to confluencey on 24 well plates. As adenosine receptor (“AR”) stimulation is known to influence cAMP levels, cells were treated with or without various concentrations of NECA (general AR agonist), CCPA (A1 AR agonist), CGS 21860 (A2A AR agonist), DMSO vehicle, or Forksolin (induces cAMP). After 15 minutes, lysis buffer was added and the cells were frozen at -80 C to stop the reaction. Duplicate samples were used for each condition. cAMP levels were assayed using a cAMP Screen kit (Applied Biosystems, Foster City, Calif.).

[1] = Klabunde 1983; cited from earlier work
EAE = EAE induction and scoring (MOG35-55/CFA/PTX); assay type: in vivo, mice
Description: Cd73^−/− mice have been previously described (Thompson et al., “Crucial Role for Ecto-5′-Nucleotidase (CD73) in Vascular Leakage During Hypoxia,” J. Exp. Med. 200:1395-1405 (2004), which is hereby incorporated by reference in its entirety) and have been backcrossed to C57BL/6 for 14 generations. Cd73^−/− mice have no overt susceptibility to infection and appear normal based on the size and cellular composition of their lymphoid organs and their T and B cell responses in in vivo and in vitro assays (Thompson et al., “Crucial Role for Ecto-5′-Nucleotidase (CD73) in Vascular Leakage During Hypoxia,” J. Exp. Med. 200:1395-1405 (2004), which is hereby incorporated by reference in its entirety). C57BL/6 and tcrα^−/− mice on the C57BL/6 background were purchased from The Jackson Laboratories. Mice were bred and housed under specific pathogen-free conditions at Cornell University or the University of Turku. For adenosine receptor blockade experiments, mice were given drinking water supplemented with 0.6 g/L of caffeine (Sigma) or 2 mg/kg SCH58261 (1 mg/kg s.c. and 1 mg/kg i.p.) in DMSO (45% vol. in PBS) or 45% DMSO alone starting 1 day before EAE induction and continuing throughout the experiment. All procedures performed on mice were approved by the relevant animal review committee.
EAE was induced by subjecting mice to the myelin oligodendrocyte glycoprotein (“MOG”) EAE-inducing regimen as described in Swanborg, “Experimental Autoimmune Encephalomyelitis in Rodents as a Model for Human Demyelinating Disease,” Clin. Immunol. Immunopathol. 77:4-13 (1995) and Bynoe et al., “Epicutaneous Immunization with Autoantigenic Peptides Induces T Suppressor Cells that Prevent Experimental Allergic Encephalomyelitis,” Immunity 19:317-328 (2003), which are hereby incorporated by reference in their entirety. […] Mice were scored daily for EAE based on disease symptom severity; 0=no disease, 0.5-1=weak/limp tail, 2=limp tail and partial hind limb paralysis, 3=total hind limb paralysis, 4=both hind limb and fore limb paralysis, 5=death. […]
As CD73 catalyzes the breakdown of AMP to adenosine and ARs are expressed in the CNS (Tsutsui et al., “A1 Adenosine Receptor Upregulation and Activation Attenuates Neuroinflammation and Demyelination in a Model of Multiple Sclerosis,” J. Neurosci. 24:1521-1529 (2004)); Rosi et al., The Influence of Brain Inflammation Upon Neuronal Adenosine A2B Receptors,” J. Neurochem. 86:220-227 (2003), which are hereby incorporated by reference in their entirety), it was next determined if AR signaling is important during EAE progression. […] Since CD73 is highly expressed on the choroid plexus (FIG. 6C), it was next determined if ARs are also expressed on the choroid plexus. […]

Molecule: OC[C@H]1O[C@@H](n2cnc3c(NC4CCCC4)nc(Cl)nc32)[C@H](O)[C@@H]1O [CCPA, 2-chloro-N^6-cyclopentyladenosine]
- lymphocyte (Jurkat) migration across the in vitro BBB (hCMEC/D3 cells): induced lymphocyte migration at high levels
- lymphocyte (Jurkat) migration across the CP (Z310 cells): induced lymphocyte migration at high levels
- dextran entry into the CNS (blood brain barrier): increased dextran entry into the CNS
- actinomyosin stress fiber formation (Bend.3 cells): marked induction of actinomycin stress fibers
- cAMP levels (HCMECD3 cells): increased cAMP levels

Molecule: CCNC(=O)[C@H]1O[C@@H](n2cnc3c(N)nc(NCCc4ccc(CCC(=O)O)cc4)nc32)[C@H](O)[C@@H]1O [CGS 21680, 4-[2-[[6-Amino-9-(N-ethyl-b-D-ribofuranuronamidosyl)-9H-purin-2-yl]amino]ethyl]benzenepropanoic acid]
- lymphocyte (Jurkat) migration across the in vitro BBB (hCMEC/D3 cells): promoted lymphocyte migration across the in vitro BBB when used at a lower concentration
- lymphocyte (Jurkat) migration across the CP (Z310 cells): promoted lymphocyte migration across the CP
- dextran entry into the CNS (blood brain barrier): increased dextran entry into the CNS
- cAMP levels (HCMECD3 cells): slightly increased cAMP levels

Molecule: Nc1ncnc2c1ncn2[C@@H]1O[C@H](CO)[C@@H](O)[C@H]1O [adenosine]
- half-life [1]: < 10 s

Molecule: Cn1c(=O)c2c(ncn2C)n(C)c1=O [caffeine]
- EAE development (EAE; cd73−/− mice, caffeine 0.6 g/L in drinking water): did not develop EAE
- EAE development (EAE; wild type mice, caffeine 0.6 g/L in drinking water from 1 day prior to and throughout EAE experiment): dramatically protected against EAE development

B1: PEG-ADA: PEGylated adenosine deaminase (protein, UniProt P56658 2-363, looked up)
Adenosine deaminase: AQTPAFNKPKVELHVHLDGAIKPETILYYGRKRGIALPADTPEELQNIIGMDKPLSLPEFLAKFDYYMPAIAGCREAVKRIAYEFVEMKAKDGVVYVEVRYSPHLLANSKVEPIPWNQAEGDLTPDEVVSLVNQGLQEGERDFGVKVRSILCCMRHQPSWSSEVVELCKKYREQTVVAIDLAGDETIEGSSLFPGHVKAYAEAVKSGVHRTVHAGEVGSANVVKEAVDTLKTERLGHGYHTLEDATLYNRLRQENMHFEVCPWSSYLTGAWKPDTEHPVVRFKNDQVNYSLNTDDPLIFKSTLDTDYQMTKNEMGFTEEEFKRLNINAAKSSFLPEDEKKELLDLLYKAYGMPSPASAEQCL
modifications: PEGylated
notes: PEGylated adenosine deaminase
- EAE development (EAE; wild-type mice, 15 units/kg i.p. every 4 days, vs PBS vehicle): inhibits the development of EAE
